In PMC7617869, “Molecular glues that inhibit deubiquitylase activity and inflammatory signaling” (Nature Structural & Molecular Biology, 2025):
Where “and” joins values, the source holds several entries; their conditions need not be identical. Identical values can stand only once. Like-named read-outs stand apart in the source and are kept apart here.

Experiments:
[1] = system: ISG expression in MCF10A Cas9 cells expressing BRCC45 R137A; test: MCF10A BRCC45 R137A ISG expression (RT–qPCR); type: cell-based, human; set-up: scale not given here; details: BRCC45 KO+ BRCC45 R137A; replicate values
Description: Supplementary Protocols 1. Experimental procedures for cell biology experiments. […]
Media supplements including human insulin solution (Santa Cruz Biotechnology, #sc-360248), cholera toxin from vibrio (Sigma Aldrich, #C8052-2MG), recombinant human EGF (PeproTech, #AF-100-15-100µg), hydrocortisone (Sigma-Aldrich, #H-0888) were used to grow MCF10A cells. The 4–12% Bis-Tris SDS-PAGE gels, cell culture media, horse serum and other materials for tissue culture were purchased from Invitrogen. LipoD293 (SigmaGen, #SL100668) was used for all the transfections to generate knock out cell lines.
Immortalised breast epithelial cell line MCF10A were cultured in 10 cm plates with Dulbecco’s Modified Eagle Medium (DMEM) + F-12 (1:1) supplemented with 5% horse serum, 100 ng/mL cholera toxin, 10 […]
Real-time quantitative PCR
1x10^5 MCF10A cells were cultured as described above and seeded into 6 well plates. Cells were left to reach ultra-confluence. Once confluent, cells were washed with PBS and starved for 30 minutes in 2 mL DMEM + F-12 (1:1) supplemented with 1% horse serum. After 30 minutes cells were pre-treated with either DMSO (0.1%) (Control and IFN only) or BRISC inhibitor (2.5 µM) for 15 minutes. After 15 minutes, hIFN2α (75 ng/mL) was added to the media and mixed. Cells were treated for 4 hours. Cells were washed with ice cold PBS and scraped with cell scrapers into 350 µL RNAlater buffer and RNA […]
#79254). Isolated RNA was quantified using a Nanodrop spectrophotometer. RNA was converted into cDNA and the complementary DNA was used for real-time quantitative PCR analysis of expression of interferon stimulated genes (ISG15, IFIT1, IFIT2, IFITM1, CXCL10 and RNA18S) using an Applied Biosystems Quantstudio 6 RT-PCR system. All experiments were carried out in triplicate.

BRISC = molecular target: T1, BRISC (Homo sapiens, UniProt P46736+Q15018+Q9NXR7); test: BRISC DUB activity assay (IQF K63-linked diubiquitin); type: biochemical
T1 construct: made in house; host or cells: Spodoptera frugiperda (Sf9) insect cells, MultiBac
Description: IQF assays were performed in DUB reaction buffer containing 50 mM HEPES–NaOH pH 7.0, 100 mM NaCl, 0.1 mg ml^−1 BSA, 1 mM DTT and 0.03% v/v Brij-35. […] The final concentration of BRISC WT, all BRISC mutants, HsBRISCΔLoop, MmBRISC and DrBRISCΔNΔC was 1 nM. Other enzymes were tested at the following concentrations: 5 nM ARISC (FL), 10 nM CfBRISCΔNΔC, 250 nM AMSH* (ref. [43]), 500 nM USP2 and 1 μM trypsin (Sigma, 9002-07-7). For Michaelis–Menten experiments, 1 nM BRISC with 0–1 μM IQF K63-linked diubiquitin substrate was used. Michaelis–Menten analyses and Lineweaver–Burk plots were calculated using GraphPad Prism (version 9.0).
To assess enzymatic activity, BRISC complexes were diluted to concentrations between 1 nM and 50 nM. […] Then, 20-μl enzyme reactions were carried out in 384-well black flat-bottom low-flange plates (Corning, 35373). DUB activity was measured using IQF K63-linked diubiquitin (LifeSensors, DU6303) at 50 nM. Cleaved diubiquitin was monitored by measuring fluorescence intensity (excitation, 544 nm; emission, 575 nm; dichroic mirror, 560 nm). Fluorescence intensity was measured every minute for 30 min at 30 °C. Fluorescence intensity units were plotted against time to generate a linear reaction progress curve, where the initial velocity (V0) corresponds to the gradient of the curve (typically achieved within 15 min). IC50 values were calculated using the GraphPad Prism (version 9.0) built-in dose–response equation for inhibitor concentration versus response (variable slope).

Structure (SMILES): O=C(NC1CCNCC1)c1nn(C(=O)c2c(Cl)cccc2Cl)cc1NC(=O)c1c(Cl)cccc1Cl [JMS-175-2]
- ISG expression (Fig. 5b) [1]: 1.361 and 1.11 and 1.149 and 1.082 and 0.8783
- ISG expression (Fig. 5c) [1]: 1.325 and 1.127 and 1.329 and 1.145 and 0.8628
- ISG expression (Fig. 5e) [1]: 1.156 and 1.163 and 1.393 and 1.185 and 1.136
- ISG expression (Fig. 5f) [1]: 1.041 and 1.139 and 1.224 and 1.412 and 1.207
- ISG expression (Fig. 5d) [1]: 1.23 and 1.313 and 1.719 and 1.523 and 0.8668
- IC50 (BRISC; 32-point dose-response, biphasic fit, read-out: IC50(1), biphasic curve): 1.1 µM
- IC50 (BRISC; 32-point dose-response, biphasic fit, read-out: IC50(2), biphasic curve): 0.168 µM
- Normalised V0 (BRISC; Fig. 1e, BRISC, JMS-175-2 1.9996 μM): 0.6565 and 0.4518
- Normalised V0 (BRISC; Fig. 1e, BRISC, JMS-175-2 5.19739 μM): 0.283 and 0.275 and 0.3465
- Normalised V0 (BRISC; Fig. 1d, log[compound (μM)] 0.0000, listed as H20): 0.6438 and 0.8274 and 0.7444
- Normalised V0 (BRISC; Fig. 1d, log[compound (μM)] 0.3979, listed as H20): 0.5783 and 0.5268 and 0.4841
- Normalised V0 (BRISC; Fig. 1d, log[compound (μM)] 0.6990, listed as H20): 0.3795 and 0.3824 and 0.3190
- Normalised V0 (BRISC; Fig. 1d, log[compound (μM)] 1.0000, listed as H20): 0.2528 and 0.2942 and 0.2669
- Normalised V0 (BRISC; Fig. 1d, log[compound (μM)] 1.4771, listed as H20): 0.1351 and 0.1861 and 0.1726
- Normalised V0 (BRISC; Fig. 1d, log[compound (μM)] 1.6990, listed as H20): 0.1117 and 0.1567 and 0.1200
- Normalised V0 (BRISC; Fig. 1d, log[compound (μM)] -0.3010, listed as H20): 0.9255 and 0.9030
- Normalised V0 (BRISC; Fig. 1d, log[compound (μM)] -1.0000, listed as H20): 0.9975 and 1.0280 and 1.0210
- Normalised V0 (BRISC; Fig. 1d, log[compound (μM)] -2.0000, listed as H20): 1.0150 and 0.9155 and 1.0690
- IC50 (BRISC; IQF K63-linked diubiquitin substrate, read-out: IC50, inhibition of BRISC DUB activity): 3.8 µM
- Normalised V0 (BRISC; [Inhibitor] 0.013 μM, replicate columns): 0.9583 and 0.7384 and 1.046 and 0.967 and 0.8595 and 0.8402
- Normalised V0 (BRISC; [Inhibitor] 0.02 μM, replicate columns): 0.8771 and 0.8197 and 1.004
- Normalised V0 (BRISC; [Inhibitor] 0.0399999 μM, replicate columns): 1.299 and 0.7892 and 1.03
- Normalised V0 (BRISC; [Inhibitor] 0.0599997 μM, replicate columns): 0.839 and 0.6819 and 0.9433
- Normalised V0 (BRISC; [Inhibitor] 0.0799994 μM, replicate columns): 0.9097 and 0.9012 and 0.9628
- Normalised V0 (BRISC; [Inhibitor] 0.119998 μM, replicate columns): 1.013 and 0.9179 and 1.054
- Normalised V0 (BRISC; [Inhibitor] 0.199996 μM, replicate columns): 1.253 and 0.7708 and 1.101
- Normalised V0 (BRISC; [Inhibitor] 0.499975 μM, replicate columns): 0.5936 and 0.7022 and 0.9756
- Normalised V0 (BRISC; [Inhibitor] 0.799936 μM, replicate columns): 0.9296 and 0.6017 and 0.8518
- Normalised V0 (BRISC; [Inhibitor] 1.25984 μM, replicate columns): 1.139 and 0.471 and 0.8066
- Normalised V0 (BRISC; [Inhibitor] 1.9996 μM, replicate columns): 0.6565 and 0.4518 and 0.6268
- Normalised V0 (BRISC; [Inhibitor] 3.159 μM, replicate columns): 0.6624 and 0.3061 and 0.5597
- Normalised V0 (BRISC; [Inhibitor] 5.19739 μM, replicate columns): 0.283 and 0.275 and 0.3465
- Normalised V0 (BRISC; [Inhibitor] 7.99364 μM, replicate columns): 0.6473 and 0.2184 and 0.4215
- Normalised V0 (BRISC; [Inhibitor] 12.7839 μM, replicate columns): 0.4135 and 0.1798 and 0.2477
- Normalised V0 (BRISC; [Inhibitor] 19.96 μM, replicate columns): 0.3284 and 0.5166 and 0.3249
- Normalised V0 (BRISC; [Inhibitor] 31.4999 μM, replicate columns): 0.6187 and 0.1303 and 0.1533
- Normalised V0 (BRISC; [Inhibitor] 50.147 μM, replicate columns): 0.2621 and 0.1377 and 0.1733
- Normalised V0 (BRISC; [Inhibitor] 79.7601 μM, replicate columns): 0.2164 and 0.1356 and 0.1726
- Normalised V0 (BRISC; [Inhibitor] 125.99 μM, replicate columns): 0.1111 and 0.1816 and 0.02719
- Normalised V0 (BRISC; [Inhibitor] 199.922 μM, replicate columns): -0.03072 and 0.01018 and -0.03521
- Normalised velocity (V0) (BRISC; inhibitor 0.000794328 μM): 1
- Normalised velocity (V0) (BRISC; inhibitor 0.00125892 μM): 0.9579 and 1.034
- Normalised velocity (V0) (BRISC; inhibitor 0.00199526 μM): 1.01 and 0.9969
- Normalised velocity (V0) (BRISC; inhibitor 0.00316228 μM): 0.9962 and 1.154
- Normalised velocity (V0) (BRISC; inhibitor 0.00501187 μM): 0.9932 and 1.028
- Normalised velocity (V0) (BRISC; inhibitor 0.00794328 μM): 1.087 and 1.121
- normalised V0, Mean (BRISC; inhibitor 0.01 μM): 1
- Normalised velocity (V0) (BRISC; inhibitor 0.0125893 μM): 1.059 and 1.016
- Normalised velocity (V0) (BRISC; inhibitor 0.0199526 μM): 1.08 and 1.097
- Normalised velocity (V0) (BRISC; inhibitor 0.0316228 μM): 1.03 and 1.101
- Normalised velocity (V0) (BRISC; inhibitor 0.0501187 μM): 1.036 and 1.109
- normalised V0, Mean (BRISC; inhibitor 0.0781 μM): 0.9992
- Normalised velocity (V0) (BRISC; inhibitor 0.0794328 μM): 1.026 and 1.083
- Normalised velocity (V0) (BRISC; inhibitor 0.125893 μM): 0.8526 and 0.9544
- Normalised velocity (V0) (BRISC; inhibitor 0.199526 μM): 0.6481 and 0.8082
- Normalised velocity (V0) (BRISC; inhibitor 0.316228 μM): 0.694 and 0.5793
- Normalised velocity (V0) (BRISC; inhibitor 0.398107 μM): 0.5098 and 0.5762
- Normalised velocity (V0) (BRISC; inhibitor 0.630957 μM): 0.4827 and 0.4555
- normalised V0, Mean (BRISC; inhibitor 0.7812 μM): 0.7414
- Normalised velocity (V0) (BRISC; inhibitor 1 μM): 0.3835 and 0.2691
- normalised V0, Mean (BRISC; inhibitor 1.562 μM): 0.5385
- Normalised velocity (V0) (BRISC; inhibitor 1.58489 μM): 0.2248 and 0.2189
- Normalised velocity (V0) (BRISC; inhibitor 2.51189 μM): 0.2301 and 0.1988
- normalised V0, Mean (BRISC; inhibitor 3.12 μM): 0.384
- Normalised velocity (V0) (BRISC; inhibitor 3.98107 μM): 0.1293 and 0.1933
- normalised V0, Mean (BRISC; inhibitor 6.25 μM): 0.2986
- Normalised velocity (V0) (BRISC; inhibitor 6.30957 μM): 0.09323 and 0.07115
- normalised V0, Mean (BRISC; inhibitor 12.3 μM): 0.2014
- Normalised velocity (V0) (BRISC; inhibitor 15.8489 μM): 0.009774 and 0.01547
- normalised V0, Mean (BRISC; inhibitor 24.54 μM): 0.1684
- Normalised velocity (V0) (BRISC; inhibitor 25.1189 μM): 0
- Normalised velocity (V0) (BRISC; inhibitor 39.8107 μM): 0
- normalised V0, Mean (BRISC; inhibitor 48.9 μM): 0.1492
- Normalised velocity (V0) (BRISC; inhibitor 63.0957 μM): 0
- Normalised velocity (V0) (BRISC; inhibitor 100 μM): 0
- normalised V0, Mean (BRISC; inhibitor 100 μM): 0.04999
- normalised V0, Mean (BRISC; inhibitor 199.5 μM): 0.004784
